Experiments:
Assay type in all cases: in vivo
common ragweed [1] = experiment: Test Example 4: herbicidal effect in foliage treatment; details: dose 3.2 g/a
In short: (§1)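 Weeds and crops sown in sterilized diluvial soil under ~1.5 cm cover and grown in greenhouse at 25 to 30° C. At 14 days, water-diluted emulsifiable concentrate sprayed onto foliage at set doses (g/a); herbicidal effect scored on a rating scale three weeks after application.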

giant foxtail [2] = experiment: as above; details: dose 3.2 g/a
In short: as §1

large crabgrass [3] = experiment: as above; details: dose 3.2 g/a
In short: as §1

velvetleaf [4] = experiment: as above; details: dose 3.2 g/a
In short: as §1

beadstraw [5] = experiment: as above; details: dose 3.2 g/a
In short: as §1

redroot pigweed [6] = experiment: as above; details: dose 3.2 g/a
In short: as §1

posumbu knotweed [7] = experiment: as above; details: dose 3.2 g/a
In short: as §1

barnyardgrass [8] = experiment: as above; details: dose 3.2 g/a
In short: as §1

common lambsquater [9] = experiment: as above; details: dose 3.2 g/a
In short: as §1

common chickweed [10] = experiment: as above; details: dose 3.2 g/a
In short: as §1

water foxtail [11] = experiment: as above; details: dose 3.2 g/a
In short: as §1

Italian ryegrass [12] = experiment: as above; details: dose 3.2 g/a
In short: as §1

barnyardgrass [13] = experiment: Test Example 1: herbicidal effects in preemergence treatment under submerged conditions; details: dose 2.52 g/a
In short: (§2)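 Flooded-paddy preemergence assay; EC diluted with water, surface-applied at weed seeding; doses g/a; rice transplanted at 2.5 leaves; 0–5 mortality score after 3 weeks.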

bulrush [14] = experiment: as above; details: dose 2.52 g/a
In short: as §2

ducksalad [15] = experiment: as above; details: dose 2.52 g/a
In short: as §2

transplanted rice = experiment: Test Example 1: preemergence treatment under submerged conditions, effect on crop; details: dose 2.52 g/a
In short: as §2

barnyardgrass [16] = experiment: Test Example 2: herbicidal effects during the vegetation period under submerged conditions; details: treatment during the vegetation period under submerged conditions; dose 2.52 g/a
In short: (§3)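 Barnyardgrass, bulrush and ducksalad were co-sown in alluvial soil flooded to 4 cm and grown in a greenhouse at 25 to 30° C. At the 1- or 2-leaf stage, water-diluted emulsifiable concentrates went onto the water surface at set doses (g/a). Herbicidal effect was scored three weeks later on a graded scale.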

bulrush [17] = experiment: as above; details: treatment during the vegetation period under submerged conditions; dose 2.52 g/a
In short: as §3

ducksalad [18] = experiment: as above; details: treatment during the vegetation period under submerged conditions; dose 2.52 g/a
In short: as §3

common ragweed [19] = experiment: Test Example 3: herbicidal effects in soil treatment; details: dose 3.2 g/a
In short: (§4)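 Seeds were sown in sterilized diluvial soil and covered with about 1.5 cm of soil. Compounds, formulated as emulsifiable concentrates and diluted with water, were sprayed evenly over the soil surface at set doses in g/a. Herbicidal effect was scored on a rating scale three weeks later.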

giant foxtail [20] = experiment: as above; details: dose 3.2 g/a
In short: as §4

large crabgrass [21] = experiment: as above; details: dose 3.2 g/a
In short: as §4

velvetleaf [22] = experiment: as above; details: dose 3.2 g/a
In short: as §4

beadstraw [23] = experiment: as above; details: dose 3.2 g/a
In short: as §4

redroot pigweed [24] = experiment: as above; details: dose 3.2 g/a
In short: as §4

posumbu knotweed [25] = experiment: as above; details: dose 3.2 g/a
In short: as §4

barnyardgrass [26] = experiment: as above; details: dose 3.2 g/a
In short: as §4

common lambsquater [27] = experiment: as above; details: dose 3.2 g/a
In short: as §4

common chickweed [28] = experiment: as above; details: dose 3.2 g/a
In short: as §4

water foxtail [29] = experiment: as above; details: dose 3.2 g/a
In short: as §4

Italian ryegrass [30] = experiment: as above; details: dose 3.2 g/a
In short: as §4

[31] = three weeks after the application

**Q.** What does the source list for `CCOC(=O)N(c1ccccc1CN1OCC(CC)OC1=O)S(=O)(=O)C(F)(F)F` (centres unmarked) [III-6]?
**A.** J: common ragweed, herbicidal effect (common ragweed [1]; [31]): 4 (mortality of at least 70% and less than 90%); E: giant foxtail, herbicidal effect (giant foxtail [2]; [31]): 5 (mortality of 90% or above (nearly complete death)); D: large crabgrass, herbicidal effect (large crabgrass [3]; [31]): 3 (mortality of at least 40% and less than 70%); I: velvetleaf, herbicidal effect (velvetleaf [4]; [31]): 3 (mortality of at least 40% and less than 70%); O: beadstraw, herbicidal effect (beadstraw [5]; [31]): 3 (mortality of at least 40% and less than 70%); K: redroot pigweed, herbicidal effect (redroot pigweed [6]; [31]): 4 (mortality of at least 70% and less than 90%); M: posumbu knotweed, herbicidal effect (posumbu knotweed [7]; [31]): 5 (mortality of 90% or above (nearly complete death)); A: barnyardgrass, herbicidal effect (barnyardgrass [8]; [31]): 5 (mortality of 90% or above (nearly complete death)); L: common lambsquater, herbicidal effect (common lambsquater [9]; [31]): 3 (mortality of at least 40% and less than 70%); N: common chickweed, herbicidal effect (common chickweed [10]; [31]): 4 (mortality of at least 70% and less than 90%); G: water foxtail, herbicidal effect (water foxtail [11]; [31]): 5 (mortality of 90% or above (nearly complete death)); H: Italian ryegrass, herbicidal effect (Italian ryegrass [12]; [31]): 2 (mortality of at least 20% and less than 40%); A: barnyardgrass, herbicidal effect (evaluation scale 0-5) (barnyardgrass [13]): 5 (mortality of 90% or above (nearly complete death)); B: bulrush, herbicidal effect (evaluation scale 0-5) (bulrush [14]): 5 (mortality of 90% or above (nearly complete death)); C: ducksalad, herbicidal effect (evaluation scale 0-5) (ducksalad [15]): 5 (mortality of 90% or above (nearly complete death)); a: transplanted rice, effect on crop (evaluation scale 0-5) (transplanted rice): 0 (mortality of less than 5% (almost ineffective)); A: barnyardgrass, herbicidal effect (evaluation scale 0-5) (barnyardgrass [16]): 5 (mortality of 90% or above (nearly complete death)); B: bulrush, herbicidal effect (evaluation scale 0-5) (bulrush [17]): 5 (mortality of 90% or above (nearly complete death)); C: ducksalad, herbicidal effect (evaluation scale 0-5) (ducksalad [18]): 5 (mortality of 90% or above (nearly complete death)); herbicidal effect, J: common ragweed (common ragweed [19]): 4 (mortality of at least 70% and less than 90%); herbicidal effect, E: giant foxtail (giant foxtail [20]): 4 (mortality of at least 70% and less than 90%); herbicidal effect, D: large crabgrass (large crabgrass [21]): 5 (mortality of 90% or above (nearly complete death)); herbicidal effect, I: velvetleaf (velvetleaf [22]): 5 (mortality of 90% or above (nearly complete death)); herbicidal effect, O: beadstraw (beadstraw [23]): 4 (mortality of at least 70% and less than 90%); herbicidal effect, K: redroot pigweed (redroot pigweed [24]): 3 (mortality of at least 40% and less than 70%); herbicidal effect, M: posumbu knotweed (posumbu knotweed [25]): 5 (mortality of 90% or above (nearly complete death)); herbicidal effect, A: barnyardgrass (barnyardgrass [26]): 5 (mortality of 90% or above (nearly complete death)); herbicidal effect, L: common lambsquater (common lambsquater [27]): 4 (mortality of at least 70% and less than 90%); herbicidal effect, N: common chickweed (common chickweed [28]): 5 (mortality of 90% or above (nearly complete death)); herbicidal effect, G: water foxtail (water foxtail [29]): 5 (mortality of 90% or above (nearly complete death)); herbicidal effect, H: Italian ryegrass (Italian ryegrass [30]): 5 (mortality of 90% or above (nearly complete death))

**Q.** Which results are given for `Cn1nc(Cl)cc1C1(C)CC(=O)N(Cc2ccccc2NS(=O)(=O)C(F)(F)F)CO1` (centres unmarked) [II-59]?
**A.** J: common ragweed, herbicidal effect (common ragweed [1]; three weeks after application): 4 (mortality of at least 70% and less than 90%); E: giant foxtail, herbicidal effect (giant foxtail [2]; three weeks after application): 1 (mortality of at least 5% and less than 20%); D: large crabgrass, herbicidal effect (large crabgrass [3]; three weeks after application): 3 (mortality of at least 40% and less than 70%); I: velvetleaf, herbicidal effect (velvetleaf [4]; three weeks after application): 2 (mortality of at least 20% and less than 40%); O: beadstraw, herbicidal effect (beadstraw [5]; three weeks after application): 5 (mortality of 90% or above (nearly complete death)); K: redroot pigweed, herbicidal effect (redroot pigweed [6]; three weeks after application): 0 (mortality of less than 5% (almost ineffective)); M: posumbu knotweed, herbicidal effect (posumbu knotweed [7]; three weeks after application): 1 (mortality of at least 5% and less than 20%); A: barnyardgrass, herbicidal effect (barnyardgrass [8]; three weeks after application): 5 (mortality of 90% or above (nearly complete death)); L: common lambsquater, herbicidal effect (common lambsquater [9]; three weeks after application): 1 (mortality of at least 5% and less than 20%); N: common chickweed, herbicidal effect (common chickweed [10]; three weeks after application): 4 (mortality of at least 70% and less than 90%); G: water foxtail, herbicidal effect (water foxtail [11]; three weeks after application): 5 (mortality of 90% or above (nearly complete death)); H: Italian ryegrass, herbicidal effect (Italian ryegrass [12]; three weeks after application): 1 (mortality of at least 5% and less than 20%); A: barnyardgrass, herbicidal effect (evaluation scale 0-5) (barnyardgrass [13]): 5 (mortality of 90% or above (nearly complete death)); B: bulrush, herbicidal effect (evaluation scale 0-5) (bulrush [14]): 5 (mortality of 90% or above (nearly complete death)); C: ducksalad, herbicidal effect (evaluation scale 0-5) (ducksalad [15]): 5 (mortality of 90% or above (nearly complete death)); a: transplanted rice, effect on crop (evaluation scale 0-5) (transplanted rice): 0 (mortality of less than 5% (almost ineffective)); A: barnyardgrass, herbicidal effect (evaluation scale 0-5) (barnyardgrass [16]): 5 (mortality of 90% or above (nearly complete death)); B: bulrush, herbicidal effect (evaluation scale 0-5) (bulrush [17]): 5 (mortality of 90% or above (nearly complete death)); C: ducksalad, herbicidal effect (evaluation scale 0-5) (ducksalad [18]): 5 (mortality of 90% or above (nearly complete death)); J: common ragweed, herbicidal effect (evaluation scale 0-5) (common ragweed [19]): 3 (mortality of at least 40% and less than 70%); E: giant foxtail, herbicidal effect (evaluation scale 0-5) (giant foxtail [20]): 4 (mortality of at least 70% and less than 90%); D: large crabgrass, herbicidal effect (evaluation scale 0-5) (large crabgrass [21]): 1 (mortality of at least 5% and less than 20%); I: velvetleaf, herbicidal effect (evaluation scale 0-5) (velvetleaf [22]): 1 (mortality of at least 5% and less than 20%); O: beadstraw, herbicidal effect (evaluation scale 0-5) (beadstraw [23]): 1 (mortality of at least 5% and less than 20%); K: redroot pigweed, herbicidal effect (evaluation scale 0-5) (redroot pigweed [24]): 3 (mortality of at least 40% and less than 70%); M: posumbu knotweed, herbicidal effect (evaluation scale 0-5) (posumbu knotweed [25]): 1 (mortality of at least 5% and less than 20%); A: barnyardgrass, herbicidal effect (evaluation scale 0-5) (barnyardgrass [26]): 4 (mortality of at least 70% and less than 90%); L: common lambsquater, herbicidal effect (evaluation scale 0-5) (common lambsquater [27]): 0 (mortality of less than 5% (almost ineffective)); N: common chickweed, herbicidal effect (evaluation scale 0-5) (common chickweed [28]): 4 (mortality of at least 70% and less than 90%); G: water foxtail, herbicidal effect (evaluation scale 0-5) (water foxtail [29]): 0 (mortality of less than 5% (almost ineffective)); H: Italian ryegrass, herbicidal effect (evaluation scale 0-5) (Italian ryegrass [30]): 5 (mortality of 90% or above (nearly complete death))
